Laboratory results reported in PubChem BioAssay (NCI).
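Five concentrations, 48 hours, 96-well plates. TGI denotes the concentration required for complete inhibition of growth.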

Experiments:
Assay in all cases: NCI-60 cell line screen, 48 h
[1] = tested on: PC-3 prostate
[2] = tested on: SNB-75 CNS
[3] = tested on: A549 NSCLC
[4] = tested on: MDA-MB-231 breast
[5] = tested on: ACHN renal
[6] = tested on: UACC-62 melanoma
[7] = tested on: NCI-H460 lung
[8] = tested on: OVCAR-3 ovarian
[9] = tested on: SF-268 CNS
[10] = tested on: OVCAR-5 ovarian
[11] = tested on: M14 melanoma

`CC(C)[C@@H]1CC[C@@H](C)C[C@H]1OC(=O)/C=C1/C2C=CC(O2)C1C(=O)O[C@@H]1C[C@H](C)CC[C@H]1C(C)C` (stereo partly specified) was tested, and the TGI [1] was greater than 100 µM, the TGI [2] was greater than 100 µM and the TGI [3] was greater than 100 µM. It also gave a TGI [4] greater than 100 µM, a TGI [5] greater than 100 µM and a TGI [6] greater than 100 µM. It also gave a TGI [7] greater than 100 µM, a TGI [8] greater than 100 µM and a TGI [9] greater than 100 µM. It also gave a TGI [10] greater than 100 µM and a TGI [11] greater than 100 µM.
In the case of `CCCCc1c(C(=O)OC(C)(C)C)cc(C#Cc2cc(C(=O)OC(C)(C)C)c(CCCC)c(C(=O)OC(C)(C)C)c2)cc1C(=O)OC(C)(C)C`, the TGI [1] is reported as greater than 100 µM, the TGI [2] is reported as greater than 100 µM and the TGI [3] is reported as greater than 100 µM. It also gave a TGI [4] greater than 100 µM, a TGI [5] greater than 100 µM and a TGI [6] greater than 100 µM. It also gave a TGI [7] greater than 100 µM, a TGI [8] greater than 100 µM and a TGI [9] greater than 100 µM. It also gave a TGI [10] greater than 100 µM and a TGI [11] greater than 100 µM.
`CCCCCC(=O)N[C@@H](c1ccccc1)C(O)C(=O)OC1C[C@@]2(O)C(OC(=O)c3ccccc3)C3[C@](C)(C(=O)[C@H](O)C(=C1C)C2(C)C)C(OC1OCC(O)C(O)C1O)C[C@H]1OC[C@@]31OC(C)=O` (stereo partly specified) showed a TGI [1] greater than 86.4 µM, a TGI [2] of 4.52 µM and a TGI [3] greater than 100 µM. For the same compound, the TGI [4] was greater than 100 µM, the TGI [5] was greater than 100 µM and the TGI [6] was greater than 100 µM. For the same compound, the TGI [7] was greater than 100 µM, the TGI [8] was 5.2 µM and the TGI [9] was greater than 100 µM. It also gave a TGI [10] greater than 100 µM and a TGI [11] greater than 88.1 µM.
`COc1ccccc1C1SCC(=O)N1c1ccc(-c2ccc(-n3c(-c4ccccc4)nc4ccccc4c3=O)cc2)cc1` (stereo unspecified) showed a TGI [1] greater than 100 µM, a TGI [2] greater than 100 µM and a TGI [3] greater than 100 µM. The TGI [4] was greater than 100 µM, the TGI [5] was greater than 100 µM and the TGI [6] was greater than 100 µM. It also gave a TGI [7] greater than 100 µM, a TGI [8] greater than 100 µM and a TGI [9] greater than 100 µM. For the same compound, the TGI [10] was greater than 100 µM and the TGI [11] was greater than 100 µM.
`COc1cc(OC)c2c(O)c3c(cc2c1)CC(C)(C)CC3=O` was tested, and the TGI [1] was greater than 100 µM, the TGI [2] was greater than 100 µM and the TGI [3] was greater than 100 µM. It also gave a TGI [4] greater than 100 µM, a TGI [5] greater than 100 µM and a TGI [6] greater than 100 µM. The TGI [7] was greater than 100 µM, the TGI [8] was greater than 100 µM and the TGI [9] was greater than 100 µM. The TGI [10] was greater than 100 µM and the TGI [11] was greater than 100 µM.
`COC(=O)C(CCc1ccccc1I)C1=CCC2(CC1)OCCO2` (stereo unspecified) showed a TGI [1] greater than 100 µM, a TGI [2] greater than 100 µM and a TGI [3] greater than 100 µM. For the same compound, the TGI [4] was greater than 100 µM, the TGI [5] was greater than 100 µM and the TGI [6] was greater than 100 µM. The TGI [7] was greater than 100 µM, the TGI [8] was greater than 100 µM and the TGI [9] was greater than 100 µM. It also gave a TGI [10] of 95.8 µM and a TGI [11] greater than 100 µM.
`O=C1C(NCCc2ccc(O)c(O)c2)=CC(=O)c2ncccc21` gave a TGI [1] greater than 100 µM, a TGI [2] of 29.4 µM and a TGI [3] of 35.7 µM. The TGI [4] was 16.1 µM, the TGI [5] was 33.5 µM and the TGI [6] was 22.5 µM. The TGI [7] was 29.4 µM, the TGI [8] was 7.77 µM and the TGI [9] was 66.5 µM. For the same compound, the TGI [10] was 40.2 µM and the TGI [11] was 40.5 µM.
Compound `Clc1nc(Cl)c(Cl)c(Cl)n1` has a TGI [1] of 34.4 µM, a TGI [2] of 33.8 µM and a TGI [3] of 40.5 µM. For the same compound, the TGI [4] was 41.3 µM, the TGI [5] was 26 µM and the TGI [6] was 35.7 µM. It also gave a TGI [7] of 51.9 µM, a TGI [8] of 31.7 µM and a TGI [9] of 56.9 µM. The TGI [10] was 43.1 µM and the TGI [11] was 34.4 µM.
`CNc1ccc(-c2nc3cc(C)ccc3o2)cc1` gave a TGI [1] greater than 100 µM, a TGI [2] of 33.7 µM and a TGI [3] greater than 100 µM. For the same compound, the TGI [4] was greater than 100 µM, the TGI [5] was greater than 100 µM and the TGI [6] was greater than 100 µM. For the same compound, the TGI [7] was greater than 100 µM, the TGI [8] was greater than 100 µM and the TGI [9] was greater than 100 µM. It also gave a TGI [10] greater than 100 µM and a TGI [11] greater than 100 µM.
For `O=C1Sc2ccc(Br)cc2C(=O)Sc2ccccc21`, the TGI [1] was 26.1 µM, the TGI [2] was 26.1 µM and the TGI [3] was greater than 71.1 µM. For the same compound, the TGI [4] was 31.7 µM, the TGI [5] was 32.8 µM and the TGI [6] was 31.8 µM. It also gave a TGI [7] of 34 µM, a TGI [8] of 27.2 µM and a TGI [9] of 22.3 µM. For the same compound, the TGI [10] was 36.8 µM and the TGI [11] was 26.6 µM.
`N#Cc1c(SCc2ccccc2)nc(-c2ccccc2)[nH]c1=S` gave a TGI [1] of 35.2 µM, a TGI [2] of 47.1 µM and a TGI [3] greater than 100 µM. For the same compound, the TGI [4] was greater than 100 µM, the TGI [5] was 63.3 µM and the TGI [6] was 56.6 µM. The TGI [7] was 51.4 µM, the TGI [8] was 36.3 µM and the TGI [9] was 57 µM. It also gave a TGI [10] of 53.6 µM and a TGI [11] of 89.8 µM.
`COC(=O)C(C)(N=Cc1ccccc1)c1ccccc1` (stereo unspecified) was tested, and the TGI [1] was greater than 100 µM, the TGI [2] was greater than 100 µM and the TGI [3] was greater than 100 µM. For the same compound, the TGI [4] was greater than 100 µM, the TGI [5] was greater than 100 µM and the TGI [6] was greater than 100 µM. It also gave a TGI [7] greater than 100 µM, a TGI [8] greater than 100 µM and a TGI [9] greater than 100 µM. For the same compound, the TGI [10] was greater than 100 µM and the TGI [11] was greater than 100 µM.
`Cc1cc(-c2[nH]c(C(=O)O)cc2I)on1` showed a TGI [1] greater than 100 µM, a TGI [2] greater than 100 µM and a TGI [3] greater than 100 µM. It also gave a TGI [4] greater than 100 µM, a TGI [5] greater than 100 µM and a TGI [6] greater than 100 µM. The TGI [7] was greater than 100 µM, the TGI [8] was greater than 100 µM and the TGI [9] was greater than 100 µM. The TGI [10] was greater than 100 µM and the TGI [11] was greater than 100 µM.
`CC(=O)N1CCc2c([nH]c3ccc(Br)cc23)C1c1ccccc1` (stereo unspecified) was tested, and the TGI [1] was greater than 10 µM, the TGI [2] was greater than 10 µM and the TGI [3] was greater than 10 µM. The TGI [4] was greater than 10 µM, the TGI [5] was greater than 10 µM and the TGI [6] was greater than 10 µM. The TGI [7] was greater than 10 µM, the TGI [8] was greater than 10 µM and the TGI [9] was greater than 10 µM. It also gave a TGI [10] greater than 10 µM and a TGI [11] greater than 10 µM.
`Cn1c(=O)c2c(nc3n(Cc4ccccc4)c(=O)c(NCCBr)cn23)n(C)c1=O` was tested, and the TGI [1] was greater than 100 µM, the TGI [2] was 49.8 µM and the TGI [3] was greater than 100 µM. It also gave a TGI [4] of 72.2 µM, a TGI [5] of 32.3 µM and a TGI [6] greater than 100 µM. It also gave a TGI [7] greater than 100 µM, a TGI [8] of 66.7 µM and a TGI [9] greater than 100 µM. For the same compound, the TGI [10] was greater than 100 µM and the TGI [11] was greater than 100 µM.
With `NC(=Nc1ccc(O)cc1)S(=O)(=O)O` the TGI [1] was greater than 100 µM, the TGI [2] was greater than 100 µM and the TGI [3] was greater than 100 µM. It also gave a TGI [4] greater than 100 µM, a TGI [5] greater than 100 µM and a TGI [6] greater than 100 µM. The TGI [7] was greater than 100 µM, the TGI [8] was greater than 100 µM and the TGI [9] was greater than 100 µM. The TGI [10] was greater than 100 µM and the TGI [11] was greater than 100 µM.
